Laboratory results published in patent US12227500B2, “Substituted pyrrolo[2,3-b]pyridines for suppressing toxic endoplasmic reticulum stress” (THE TRUSTEES OF COLUMBIA UNIVERSITY IN THE CITY OF NEW YORK, priority 2018, dated 2025).

Experiments:
Assay in all cases: Radiolabeled ATP kinase assay, panel of 371 kinases (Table S6)
Assay type in all cases: biochemical
[1] = target: T1, panel of 371 human kinases (Homo sapiens, UniProt Q86Z02); details: HIPK1; 0.1 μM; 10 μM ATP; read-out: % Enzyme Activity (relative to DMSO controls)
T1 construct: purchased Reaction Biology Corp
Source text: (§1) ; FIG. 38C). […]. Further targeted analyses, such as genetic knock-down or knock-out, may be warranted to parse the role of these additional kinases in our model of neurodegeneration.

[2] = target: T2, panel of 371 human kinases (Homo sapiens, UniProt Q96KB5); details: PBK/TOPK; 0.1 μM; 10 μM ATP; read-out: % Enzyme Activity (relative to DMSO controls)
T2 construct: purchased Reaction Biology Corp
Source text: as §1

[3] = target: T3, panel of 371 human kinases (Homo sapiens, UniProt Q96NX5); details: CAMK1g; 0.1 μM; 10 μM ATP; read-out: % Enzyme Activity (relative to DMSO controls)
T3 construct: purchased Reaction Biology Corp
Source text: as §1

[4] = target: T4, panel of 371 human kinases (Homo sapiens, UniProt P06213); details: IR; 0.1 μM; 10 μM ATP; read-out: % Enzyme Activity (relative to DMSO controls)
T4 construct: purchased Reaction Biology Corp
Source text: as §1

[5] = target: T5, panel of 371 human kinases (Homo sapiens, UniProt Q96L34); details: MARK4; 0.1 μM; 10 μM ATP; read-out: % Enzyme Activity (relative to DMSO controls)
T5 construct: purchased Reaction Biology Corp
Source text: as §1

[6] = target: T6, panel of 371 human kinases (Homo sapiens, UniProt Q16513); details: PKN2/PRK2; 0.1 μM; 10 μM ATP; read-out: % Enzyme Activity (relative to DMSO controls)
T6 construct: purchased Reaction Biology Corp
Source text: as §1

[7] = target: T7, panel of 371 human kinases (Homo sapiens, UniProt Q14164); details: IKKe/IKBKE; 0.1 μM; 10 μM ATP; read-out: % Enzyme Activity (relative to DMSO controls)
T7 construct: purchased Reaction Biology Corp
Source text: as §1

[8] = target: T8, panel of 371 human kinases (Homo sapiens, UniProt Q15746); details: MLCK/MYLK; 0.1 μM; 10 μM ATP; read-out: % Enzyme Activity (relative to DMSO controls)
T8 construct: purchased Reaction Biology Corp
Source text: as §1

[9] = target: T9, panel of 371 human kinases (Homo sapiens, UniProt Q9NY57); details: STK32B/YANK2; 0.1 μM; 10 μM ATP; read-out: % Enzyme Activity (relative to DMSO controls)
T9 construct: purchased Reaction Biology Corp
Source text: as §1

[10] = target: T10, panel of 371 human kinases (Homo sapiens, UniProt P37023); details: ALK1/ACVRL1; 0.1 μM; 10 μM ATP; read-out: % Enzyme Activity (relative to DMSO controls)
T10 construct: purchased Reaction Biology Corp
Source text: as §1

[11] = target: T11, panel of 371 human kinases (Homo sapiens, UniProt P52333); details: JAK3; 0.1 μM; 10 μM ATP; read-out: % Enzyme Activity (relative to DMSO controls)
T11 construct: purchased Reaction Biology Corp
Source text: as §1

[12] = target: T12, panel of 371 human kinases (Homo sapiens, UniProt P78368); details: CK1g2; 0.1 μM; 10 μM ATP; read-out: % Enzyme Activity (relative to DMSO controls)
T12 construct: purchased Reaction Biology Corp
Source text: as §1

[13] = target: T13, panel of 371 human kinases (Homo sapiens, UniProt Q5TCX8); details: MLK4; 0.1 μM; 10 μM ATP; read-out: % Enzyme Activity (relative to DMSO controls)
T13 construct: purchased Reaction Biology Corp
Source text: as §1

[14] = target: T14, panel of 371 human kinases (Homo sapiens, UniProt Q9NYL2); details: ZAK/MLTK; 0.1 μM; 10 μM ATP; read-out: % Enzyme Activity (relative to DMSO controls)
T14 construct: purchased Reaction Biology Corp
Source text: as §1

[15] = target: T15, panel of 371 human kinases (Homo sapiens, UniProt Q8TD08); details: ERK7/MAPK15; 0.1 μM; 10 μM ATP; read-out: % Enzyme Activity (relative to DMSO controls)
T15 construct: purchased Reaction Biology Corp
Source text: as §1

[16] = target: T16, panel of 371 human kinases (Homo sapiens, UniProt P29322); details: EPHA8; 0.1 μM; 10 μM ATP; read-out: % Enzyme Activity (relative to DMSO controls)
T16 construct: purchased Reaction Biology Corp
Source text: as §1

[17] = target: T17, panel of 371 human kinases (Homo sapiens, UniProt Q86V86); details: PIM3; 0.1 μM; 10 μM ATP; read-out: % Enzyme Activity (relative to DMSO controls)
T17 construct: purchased Reaction Biology Corp
Source text: as §1

[18] = target: T18, panel of 371 human kinases (Homo sapiens, UniProt P14616); details: IRR/INSRR; 0.1 μM; 10 μM ATP; read-out: % Enzyme Activity (relative to DMSO controls)
T18 construct: purchased Reaction Biology Corp
Source text: as §1

[19] = target: T19, panel of 371 human kinases (Homo sapiens, UniProt Q99683); details: ASK1/MAP3K5; 0.1 μM; 10 μM ATP; read-out: % Enzyme Activity (relative to DMSO controls)
T19 construct: purchased Reaction Biology Corp
Source text: as §1

[20] = target: T20, panel of 371 human kinases (Homo sapiens, UniProt Q86SG6); details: NEK8; 0.1 μM; 10 μM ATP; read-out: % Enzyme Activity (relative to DMSO controls)
T20 construct: purchased Reaction Biology Corp
Source text: as §1

[21] = target: T21, panel of 371 human kinases (Homo sapiens, UniProt P51813); details: BMX/ETK; 0.1 μM; 10 μM ATP; read-out: % Enzyme Activity (relative to DMSO controls)
T21 construct: purchased Reaction Biology Corp
Source text: as §1

[22] = target: T22, panel of 371 human kinases (Homo sapiens, UniProt Q92918); details: HPK1/MAP4K1; 0.1 μM; 10 μM ATP; read-out: % Enzyme Activity (relative to DMSO controls)
T22 construct: purchased Reaction Biology Corp
Source text: as §1

[23] = target: T23, panel of 371 human kinases (Homo sapiens, UniProt P53350); details: PLK1; 0.1 μM; 10 μM ATP; read-out: % Enzyme Activity (relative to DMSO controls)
T23 construct: purchased Reaction Biology Corp
Source text: as §1

[24] = target: T24, panel of 371 human kinases (Homo sapiens, UniProt Q02750); details: MEK1; 0.1 μM; 10 μM ATP; read-out: % Enzyme Activity (relative to DMSO controls)
T24 construct: purchased Reaction Biology Corp
Source text: as §1

T22 sequence (Q92918 whole entry): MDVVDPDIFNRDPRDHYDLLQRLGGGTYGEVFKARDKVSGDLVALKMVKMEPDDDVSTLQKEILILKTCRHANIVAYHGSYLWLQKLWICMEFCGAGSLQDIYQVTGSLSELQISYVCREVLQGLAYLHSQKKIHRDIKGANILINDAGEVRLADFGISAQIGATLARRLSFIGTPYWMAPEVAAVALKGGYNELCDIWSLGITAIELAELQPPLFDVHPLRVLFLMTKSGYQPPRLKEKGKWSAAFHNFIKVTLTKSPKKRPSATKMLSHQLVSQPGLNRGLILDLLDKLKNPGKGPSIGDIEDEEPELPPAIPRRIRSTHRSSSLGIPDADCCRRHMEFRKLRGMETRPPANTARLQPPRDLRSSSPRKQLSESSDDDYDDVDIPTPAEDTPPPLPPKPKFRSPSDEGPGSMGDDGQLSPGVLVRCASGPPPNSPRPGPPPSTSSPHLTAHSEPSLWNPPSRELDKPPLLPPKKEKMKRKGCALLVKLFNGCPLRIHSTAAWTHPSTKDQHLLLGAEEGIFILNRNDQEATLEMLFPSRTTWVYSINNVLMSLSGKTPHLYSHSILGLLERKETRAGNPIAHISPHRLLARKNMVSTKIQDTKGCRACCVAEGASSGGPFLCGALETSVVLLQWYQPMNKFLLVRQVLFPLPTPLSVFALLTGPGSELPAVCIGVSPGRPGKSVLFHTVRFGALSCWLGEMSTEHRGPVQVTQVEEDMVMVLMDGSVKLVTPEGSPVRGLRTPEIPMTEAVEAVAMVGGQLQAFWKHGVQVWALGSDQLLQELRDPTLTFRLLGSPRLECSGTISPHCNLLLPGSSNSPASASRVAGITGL
T18 sequence (P14616 27-1297): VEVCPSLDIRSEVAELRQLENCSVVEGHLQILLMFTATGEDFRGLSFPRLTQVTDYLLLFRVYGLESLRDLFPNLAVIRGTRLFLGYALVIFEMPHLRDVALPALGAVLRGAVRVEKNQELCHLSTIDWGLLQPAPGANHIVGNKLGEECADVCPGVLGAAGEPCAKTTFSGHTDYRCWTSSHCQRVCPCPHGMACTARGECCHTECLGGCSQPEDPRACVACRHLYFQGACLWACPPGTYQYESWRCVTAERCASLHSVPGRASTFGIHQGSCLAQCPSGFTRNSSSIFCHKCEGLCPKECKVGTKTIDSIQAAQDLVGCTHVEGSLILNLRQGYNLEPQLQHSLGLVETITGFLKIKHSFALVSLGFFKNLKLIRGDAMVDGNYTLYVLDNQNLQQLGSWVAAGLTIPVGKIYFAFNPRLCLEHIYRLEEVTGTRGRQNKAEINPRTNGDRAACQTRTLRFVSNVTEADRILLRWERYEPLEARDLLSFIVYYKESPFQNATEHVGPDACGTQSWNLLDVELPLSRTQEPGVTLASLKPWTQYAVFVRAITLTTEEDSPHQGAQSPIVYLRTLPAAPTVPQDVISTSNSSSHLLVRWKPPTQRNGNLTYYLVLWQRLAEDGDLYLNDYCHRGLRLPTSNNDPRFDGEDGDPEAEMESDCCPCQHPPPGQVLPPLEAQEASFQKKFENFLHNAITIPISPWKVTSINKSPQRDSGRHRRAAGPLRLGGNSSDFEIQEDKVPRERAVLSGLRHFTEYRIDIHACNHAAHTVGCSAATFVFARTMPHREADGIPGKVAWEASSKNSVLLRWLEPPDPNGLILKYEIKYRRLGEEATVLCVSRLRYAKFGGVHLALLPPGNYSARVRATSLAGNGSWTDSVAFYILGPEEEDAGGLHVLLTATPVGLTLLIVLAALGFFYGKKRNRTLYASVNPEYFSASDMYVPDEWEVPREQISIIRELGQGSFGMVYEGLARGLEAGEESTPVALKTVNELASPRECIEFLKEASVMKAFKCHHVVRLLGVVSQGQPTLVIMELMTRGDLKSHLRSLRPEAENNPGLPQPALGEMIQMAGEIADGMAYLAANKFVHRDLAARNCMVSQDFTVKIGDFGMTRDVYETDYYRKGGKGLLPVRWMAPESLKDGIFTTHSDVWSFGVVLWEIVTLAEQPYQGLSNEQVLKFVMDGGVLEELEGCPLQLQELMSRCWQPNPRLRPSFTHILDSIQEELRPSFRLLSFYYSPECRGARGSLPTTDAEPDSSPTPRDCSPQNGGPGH
T7 sequence (Q14164 whole entry): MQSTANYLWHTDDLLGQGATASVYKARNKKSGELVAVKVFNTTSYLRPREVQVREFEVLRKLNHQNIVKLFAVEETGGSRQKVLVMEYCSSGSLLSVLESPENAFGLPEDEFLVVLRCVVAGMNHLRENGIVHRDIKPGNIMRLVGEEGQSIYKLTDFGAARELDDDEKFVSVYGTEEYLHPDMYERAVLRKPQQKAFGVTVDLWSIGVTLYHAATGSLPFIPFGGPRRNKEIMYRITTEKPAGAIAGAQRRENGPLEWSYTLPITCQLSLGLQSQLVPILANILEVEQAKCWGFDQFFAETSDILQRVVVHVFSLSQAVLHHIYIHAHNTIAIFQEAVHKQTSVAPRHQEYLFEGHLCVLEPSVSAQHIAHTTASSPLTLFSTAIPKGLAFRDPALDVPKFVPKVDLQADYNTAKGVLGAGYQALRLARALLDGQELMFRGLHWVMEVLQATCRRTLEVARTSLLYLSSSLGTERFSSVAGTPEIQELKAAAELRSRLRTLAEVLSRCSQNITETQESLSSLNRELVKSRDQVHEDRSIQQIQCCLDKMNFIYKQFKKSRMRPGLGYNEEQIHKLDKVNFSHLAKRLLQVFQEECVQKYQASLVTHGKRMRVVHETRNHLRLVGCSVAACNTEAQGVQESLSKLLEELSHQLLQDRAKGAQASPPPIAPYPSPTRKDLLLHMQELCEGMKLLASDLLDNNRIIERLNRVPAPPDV
T14 sequence (Q9NYL2 whole entry): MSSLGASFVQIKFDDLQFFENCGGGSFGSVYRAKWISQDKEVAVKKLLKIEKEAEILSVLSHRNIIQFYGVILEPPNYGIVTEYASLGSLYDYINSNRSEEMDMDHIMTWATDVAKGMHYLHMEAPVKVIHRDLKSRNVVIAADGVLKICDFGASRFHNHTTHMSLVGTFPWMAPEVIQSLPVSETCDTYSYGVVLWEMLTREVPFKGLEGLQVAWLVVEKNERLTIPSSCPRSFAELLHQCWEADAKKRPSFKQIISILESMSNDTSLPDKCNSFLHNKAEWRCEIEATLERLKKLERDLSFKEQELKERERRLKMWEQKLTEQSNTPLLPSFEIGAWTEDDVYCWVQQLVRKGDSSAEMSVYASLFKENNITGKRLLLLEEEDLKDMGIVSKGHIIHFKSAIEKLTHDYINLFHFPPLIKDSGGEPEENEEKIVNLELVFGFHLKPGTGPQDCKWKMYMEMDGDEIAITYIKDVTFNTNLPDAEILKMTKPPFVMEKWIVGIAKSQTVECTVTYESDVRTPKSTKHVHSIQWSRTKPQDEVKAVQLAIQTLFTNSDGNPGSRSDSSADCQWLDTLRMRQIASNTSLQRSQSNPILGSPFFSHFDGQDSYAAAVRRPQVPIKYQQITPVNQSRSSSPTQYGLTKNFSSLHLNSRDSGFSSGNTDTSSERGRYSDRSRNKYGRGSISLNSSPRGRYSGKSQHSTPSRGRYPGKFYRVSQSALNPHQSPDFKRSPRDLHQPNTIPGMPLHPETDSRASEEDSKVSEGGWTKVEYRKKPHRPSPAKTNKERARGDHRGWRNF
T1 sequence (Q86Z02 whole entry): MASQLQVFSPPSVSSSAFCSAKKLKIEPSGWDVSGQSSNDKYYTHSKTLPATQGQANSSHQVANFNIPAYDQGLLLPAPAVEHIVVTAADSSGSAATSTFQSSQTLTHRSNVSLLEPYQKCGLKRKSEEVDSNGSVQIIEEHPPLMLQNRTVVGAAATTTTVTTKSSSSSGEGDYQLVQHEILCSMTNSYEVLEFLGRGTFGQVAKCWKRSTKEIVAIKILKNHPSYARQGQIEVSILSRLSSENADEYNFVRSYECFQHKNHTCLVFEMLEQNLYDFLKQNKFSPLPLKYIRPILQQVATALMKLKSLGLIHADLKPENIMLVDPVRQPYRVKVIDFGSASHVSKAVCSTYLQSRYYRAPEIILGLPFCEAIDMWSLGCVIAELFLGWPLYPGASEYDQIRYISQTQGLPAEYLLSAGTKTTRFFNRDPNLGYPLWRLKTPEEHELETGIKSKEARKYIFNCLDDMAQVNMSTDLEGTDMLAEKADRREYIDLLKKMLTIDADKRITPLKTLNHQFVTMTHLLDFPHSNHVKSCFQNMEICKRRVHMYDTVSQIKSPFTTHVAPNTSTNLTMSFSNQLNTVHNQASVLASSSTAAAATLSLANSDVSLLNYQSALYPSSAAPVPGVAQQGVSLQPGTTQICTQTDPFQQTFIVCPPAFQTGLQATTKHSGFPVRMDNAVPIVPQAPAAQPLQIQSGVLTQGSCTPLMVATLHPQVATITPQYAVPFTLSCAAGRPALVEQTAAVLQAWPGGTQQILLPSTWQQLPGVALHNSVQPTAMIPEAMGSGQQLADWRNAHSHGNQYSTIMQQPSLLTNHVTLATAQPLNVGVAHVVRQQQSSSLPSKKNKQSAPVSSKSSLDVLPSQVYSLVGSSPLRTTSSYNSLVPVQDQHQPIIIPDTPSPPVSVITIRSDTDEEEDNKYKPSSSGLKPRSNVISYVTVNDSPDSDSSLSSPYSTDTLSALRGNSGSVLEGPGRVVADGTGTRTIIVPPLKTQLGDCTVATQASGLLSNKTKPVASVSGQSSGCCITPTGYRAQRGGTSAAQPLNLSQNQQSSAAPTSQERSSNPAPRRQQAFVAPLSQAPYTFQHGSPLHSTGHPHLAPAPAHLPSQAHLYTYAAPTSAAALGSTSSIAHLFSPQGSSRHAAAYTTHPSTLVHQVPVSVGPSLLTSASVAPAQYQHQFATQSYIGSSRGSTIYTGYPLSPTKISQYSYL

Compound	remaining activity at 0.1 µM [1] [%]	remaining activity at 0.1 µM [2] [%]	remaining activity at 0.1 µM [3] [%]	remaining activity at 0.1 µM [4] [%]	remaining activity at 0.1 µM [5] [%]	remaining activity at 0.1 µM [6] [%]	remaining activity at 0.1 µM [7] [%]	remaining activity at 0.1 µM [8] [%]	remaining activity at 0.1 µM [9] [%]	remaining activity at 0.1 µM [10] [%]	remaining activity at 0.1 µM [11] [%]	remaining activity at 0.1 µM [12] [%]	remaining activity at 0.1 µM [13] [%]	remaining activity at 0.1 µM [14] [%]	remaining activity at 0.1 µM [15] [%]	remaining activity at 0.1 µM [16] [%]	remaining activity at 0.1 µM [17] [%]	remaining activity at 0.1 µM [18] [%]	remaining activity at 0.1 µM [19] [%]	remaining activity at 0.1 µM [20] [%]	also measured
CN1CCN(Cc2ccc(-c3cnc4[nH]cc(-c5ccc6[nH]ccc6c5)c4c3)cc2)CC1 [Compound 1, 3-(1H-Indol-5-yl)-5-(4-((4-methylpiperazin-1-yl)methyl)phenyl)-1H-pyrrolo[2,3-b]pyridine, reference compound]	106	96.8	97.8	100	76	81.6	82.5	93.4	97	106	90.9	102	99.9	91.3	109	90.8	92.9	50.1	103	99.1	remaining activity at 0.1 µM [21]: 101%; remaining activity at 0.1 µM [22]: 49.6%; remaining activity at 0.1 µM [23]: 98.6%; remaining activity at 0.1 µM [24]: 111%
OCCN1CCN(Cc2ccc(-c3cnc4[nH]cc(-c5cccc(Cl)c5)c4c3)cc2)CC1 [Compound 12k, 2-(4-(4-(3-(3-Chlorophenyl)-1H-pyrrolo[2,3-b]pyridin-5-yl)benzyl)piperazin-1-yl)ethan-1-ol]	96	97.1	101	112	40	59.5	63.8	99.1	88.5	100	76.2	102	108	77.9	90.4	93.5	106	89.9	95.7	97.9	remaining activity at 0.1 µM [21]: 103%; remaining activity at 0.1 µM [22]: 47.9%; remaining activity at 0.1 µM [23]: 100%; remaining activity at 0.1 µM [24]: 92.7%
